This is an account of results in US12338236B2, “Benzoisothiazole and benzoisoxazole compounds for the treatment of mental disorders” (SUVEN LIFE SCIENCES LIMITED, priority 2022, dated 2025).

Series [1] deals with T1, human 5-HT2A receptor (Homo sapiens, UniProt P28223).
T1 construct: expressed in transfected cells; host or cells: CHO-K1
Briefly: Determination of Ki values at 5-HT2A receptor ([3H]-Ketanserine radioligand binding). The settings on record: h5-HT2A, CHO-K1, [3H]-Ketanserine 1.25 nM. Here is the method: Example-44: Determination of Ki Values at 5-HT2A Receptor
• Receptor source: Recombinant mammalian cells (CHO-K1) • Radioligand: [^3H]-Ketanserine (41.9 Ci/mmol) • Final ligand concentration: 1.25 nM • Non-specific determinant: 0.1 mM 1-Napthyl piperazine (1-NP) • Reference compound: 1-Napthyl piperazine (1-NP) • Positive control: 1-Napthyl piperazine (1-NP) Incubation conditions: Reactions were carried out in buffer with pH 7.4 containing 50 mM Tris-HCl, 4 mM CaCl2, 0.1% Ascorbic acid for 1 h at RT. The reaction was terminated by rapid vacuum filtration onto the glass fiber filters. Radioactivity trapped onto the filters was determined and compared to the control values in order to ascertain any interactions of the test compound(s) with cloned human 5-HT2A receptor binding site.

The target in series [2] is T2, human adrenergic α1B receptor (Homo sapiens, UniProt P35368).
T2 construct: expressed in transfected cells; host or cells: Chem-1
T2 sequence (P35368 1-520): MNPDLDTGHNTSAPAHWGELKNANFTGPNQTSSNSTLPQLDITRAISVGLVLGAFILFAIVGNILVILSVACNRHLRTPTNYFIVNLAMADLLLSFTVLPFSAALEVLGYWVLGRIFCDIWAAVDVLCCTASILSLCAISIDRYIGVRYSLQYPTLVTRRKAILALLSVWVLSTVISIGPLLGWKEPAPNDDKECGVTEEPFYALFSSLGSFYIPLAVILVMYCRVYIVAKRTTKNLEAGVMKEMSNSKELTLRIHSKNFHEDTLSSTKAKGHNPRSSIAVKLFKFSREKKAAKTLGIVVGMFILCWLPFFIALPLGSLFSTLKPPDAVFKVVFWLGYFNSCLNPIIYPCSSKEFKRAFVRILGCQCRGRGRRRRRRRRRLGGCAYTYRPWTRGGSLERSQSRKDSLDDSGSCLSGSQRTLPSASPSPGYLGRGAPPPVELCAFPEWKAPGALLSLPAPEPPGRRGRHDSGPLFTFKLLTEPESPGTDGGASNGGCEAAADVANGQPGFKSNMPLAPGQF
The experiment in a line: Determination of Ki values at adrenergic α1B receptor ([3H]-Prazosin radioligand binding). The settings on record: hα1B, Chem-1 cells, [3H]-Prazosin 1 nM; read-out: Ki Alpha1B. Here is the method:
Example-47: Determination of Ki Values at Adrenergic α1B Receptor
• Receptor source: Recombinant mammalian cells (Chem-1) • Radioligand: [^3H]-Prazosin (77.4 Ci/mmol) • Final ligand concentration: 1 nM • Non-specific determinant: 0.1 mM Prazosin • Reference compound: Prazosin • Positive control: Prazosin Incubation conditions: Reactions were carried out in buffer with pH 7.4 containing 67 mM Tris-HCl, 67 μM EDTA, […] for 1 h at RT. The reaction was terminated by rapid vacuum filtration onto the glass fiber filters. Radioactivity trapped onto the filters was determined and compared to the control values in order to ascertain any interactions of the test compound(s) with cloned human adrenergic α1B receptor binding site.

Series [3] in a line: Rodent brain penetration study. Format: in vivo, Male Wistar rats. The settings on record: male, Wistar, brain and plasma, po; rat, 3 mg/kg, p.o. @ 1 h; read-out: Rat Brain Penetration (Cbrain/Cplasma). Here is the method:
Example-50: Rodent Brain Penetration Study Male Wistar rats (260±40 g) were used as experimental animals. Three animals were housed in each cage. Animals were given water and food ad libitum throughout the experiment and maintained on a 12 h light/dark cycle. Brain penetration was determined in discrete manner in rats. One day prior to dosing day, male Wistar rats were acclimatized and randomly grouped according to their weight. At each time point (0.50, 1 and 2 h) n=3 animals were used. The test compounds were suitably preformulated and administered orally at (free base equivalent) 3 mg/kg. Blood samples were removed via cardiac puncture by using isoflurane anesthesia. The animals were sacrificed to collect brain tissue. Plasma was separated and brain samples were homogenized and stored frozen at −20° C. until analysis. The concentrations of the test compounds in plasma and brain were determined using LC-MS/MS method. The test compounds were quantified in plasma and brain homogenate by qualified LC-MS/MS method using suitable extraction technique in the calibration range of 1-2000 ng/mL. Study samples were analyzed using calibration samples in the batch and quality control samples spread across the batch. Extent of brain-plasma ratio (Cbrain/Cplasma) was calculated

For series [4], the target named is T3, human dopamine D2s receptor (Homo sapiens, UniProt P14416).
T3 construct: expressed in transfected cells; host or cells: CHO-K1
T3 sequence (P14416 1-414 isoform P14416-2): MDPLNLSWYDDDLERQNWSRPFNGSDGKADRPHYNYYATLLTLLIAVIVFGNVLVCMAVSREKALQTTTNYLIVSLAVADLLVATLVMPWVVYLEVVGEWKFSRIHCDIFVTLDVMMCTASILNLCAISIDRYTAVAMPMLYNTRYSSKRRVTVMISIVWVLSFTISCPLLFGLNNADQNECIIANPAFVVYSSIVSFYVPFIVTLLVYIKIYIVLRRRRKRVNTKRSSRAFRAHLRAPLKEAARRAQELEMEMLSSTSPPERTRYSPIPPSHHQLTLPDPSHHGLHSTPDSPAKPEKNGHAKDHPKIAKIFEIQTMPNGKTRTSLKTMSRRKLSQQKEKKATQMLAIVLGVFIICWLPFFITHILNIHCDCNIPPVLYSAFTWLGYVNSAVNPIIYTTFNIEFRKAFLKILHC
The experiment in a line: Determination of Ki values at D2S receptor ([3H]-Raclopride radioligand binding). The settings on record: hD2 (D2S), CHO-K1, [3H]-Raclopride 4 nM; read-out: Ki D2. Here is the method:
Example-45: Determination of Ki Values at D2S Receptor
• Receptor source: Recombinant mammalian cells (CHO-K1) • Radioligand: [^3H]-Raclopride (80.8 Ci/mmol) • Final ligand concentration: 4 nM • Non-specific determinant: 0.1 mM Haloperidol • Reference compound: Haloperidol • Positive control: Haloperidol Incubation conditions: Reactions were carried out in buffer with pH 7.4 containing 50 mM Tris-HCl, 120 mM NaCl, 5 mM KCl, 5 mM MgCl2, 1 mM EDTA for 2 h at RT. The reaction was terminated by rapid vacuum filtration onto the glass fiber filters. Radioactivity trapped onto the filters was determined and compared to the control values in order to ascertain any interactions of the test compound(s) with cloned human dopamine D2s receptor binding site.

The target in series [5] is T4, human SERT (Homo sapiens, UniProt P31645).
T4 construct: expressed in transfected cells; host or cells: HEK293
T4 sequence (P31645 whole entry): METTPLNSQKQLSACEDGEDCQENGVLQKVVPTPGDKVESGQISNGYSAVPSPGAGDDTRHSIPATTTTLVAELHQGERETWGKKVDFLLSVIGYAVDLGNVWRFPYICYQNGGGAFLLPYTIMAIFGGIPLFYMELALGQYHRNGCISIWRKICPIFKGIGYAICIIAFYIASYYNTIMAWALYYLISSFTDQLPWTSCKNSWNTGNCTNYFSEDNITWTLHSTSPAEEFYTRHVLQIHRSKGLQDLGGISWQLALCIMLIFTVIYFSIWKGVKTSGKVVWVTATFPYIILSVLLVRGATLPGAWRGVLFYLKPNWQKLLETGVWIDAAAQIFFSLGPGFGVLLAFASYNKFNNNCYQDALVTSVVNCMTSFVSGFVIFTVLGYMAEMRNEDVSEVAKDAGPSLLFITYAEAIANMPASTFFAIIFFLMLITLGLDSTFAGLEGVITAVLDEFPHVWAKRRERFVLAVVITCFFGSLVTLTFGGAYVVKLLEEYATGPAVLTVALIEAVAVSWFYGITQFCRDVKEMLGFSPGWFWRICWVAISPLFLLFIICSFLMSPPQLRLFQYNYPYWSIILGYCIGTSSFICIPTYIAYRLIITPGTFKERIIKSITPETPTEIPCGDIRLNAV
Briefly: Determination of Ki values at SERT receptor ([3H]-Citalopram SPA binding). The settings on record: hSERT, HEK293, [3H]-Citalopram 2 nM. Here is the method: Example-46: Determination of Ki Values at SERT Receptor
• Receptor source: Recombinant mammalian cells (HEK293) • Radioligand: [^3H]-Citalopram (80.8 Ci/mmol) • Final ligand concentration: 2 nM • Non-specific determinant: 0.1 mM Venlafaxine • Reference compound: Venlafaxine • Positive control: Venlafaxine Incubation conditions: Reactions were carried out in buffer with pH 7.4 containing 50 mM Tris-HCl, 150 mM NaCl, 5 mM KCl and Scintillation proximity assay (SPA) beads (0.1 mg/well) for 3 h at RT. Radioactivity proximal to SPA beads was determined by scintillation proximity assay and compared to the control values in order to ascertain any interactions of the test compound(s) with cloned human SERT receptor binding site.

Where a name gives a salt, the structure may show the parent alone.

T1 sequence (P28223 whole entry): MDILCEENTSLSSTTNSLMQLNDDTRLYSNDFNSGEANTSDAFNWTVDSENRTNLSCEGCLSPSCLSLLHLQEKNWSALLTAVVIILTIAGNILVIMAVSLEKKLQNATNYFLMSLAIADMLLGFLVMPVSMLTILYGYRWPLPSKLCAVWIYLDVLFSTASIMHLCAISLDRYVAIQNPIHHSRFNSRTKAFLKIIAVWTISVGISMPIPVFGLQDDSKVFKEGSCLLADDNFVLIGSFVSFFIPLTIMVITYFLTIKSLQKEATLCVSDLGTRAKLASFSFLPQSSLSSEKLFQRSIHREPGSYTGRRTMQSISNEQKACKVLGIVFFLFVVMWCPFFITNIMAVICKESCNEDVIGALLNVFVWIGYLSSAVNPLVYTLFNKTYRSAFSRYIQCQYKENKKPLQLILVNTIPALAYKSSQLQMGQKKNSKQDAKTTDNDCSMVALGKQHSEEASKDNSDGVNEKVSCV

Turning to `Cc1noc(-c2csc(OCCCN3CCN(c4nsc5ccccc45)CC3)n2)n1` [compound 12, 3-(4-{3-[4-(3-Methyl-[1,2,4]oxadiazol-5-yl)-thiazol-2-yloxy]-propyl}-piperazin-1-yl)-benzo[d]isothiazole oxalate], the Ki in series [1] stood at 0.5 nM; in series [2], 14.4 nM; in series [4], 0.4 nM; in series [5], 157 nM. Also, the Kp at 1 h in series [3] stood at 2.09.

`Cc1nnc(-c2csc(OCCCN3CCN(c4nsc5ccccc45)CC3)n2)o1` [Example-2, 3-(4-{3-[4-(5-Methyl-[1,3,4]oxadiazol-2-yl)-thiazol-2-yloxy]-propyl}-piperazin-1-yl)-benzo[d]isothiazole oxalate]: the Ki in series [1] was determined as 0.24 nM; in series [2] it was 13.3 nM; in series [4] it was 0.41 nM; in series [5], 80 nM. In addition, the Kp at 1 h in series [3] was 1.25.

By Ki is commonly meant a dissociation constant, usually derived from enzyme kinetics or from competition with a known ligand.
